Experimental data as given in ChEMBL document CHEMBL1212702.

The compounds below were run on MCF7 (assay: Activity at estrogen receptor expressed in human MCF7 cells assessed as increase in receptor-mediated transcription by ERE-luciferase reporter gene assay relative to estradiol).
Assay type: cell-based
Set-up: concentration or dose not given beside the values

First: CCOC(=O)[C@@H]1[C@H](C(=O)OCC)[C@@H]2O[C@H]1C(c1ccc(O)cc1)=C2c1ccc(O)cc1
Second: COC(=O)C1=C(C(=O)OC)[C@@H]2O[C@H]1C(c1ccc(O)cc1)=C2c1ccc(O)cc1
The Activity of the first is lower: 10% for the first, 50% for the second.

`Cn1c(N)nc2ncc(-c3ccccc3)cc21` and `Oc1ccc(-c2c(-c3ccccc3)nn3c(C(F)(F)F)cc(C(F)(F)F)nc23)cc1` cannot be ordered by Activity: under 50% for the first, 10% for the second.

For `Oc1ccc(-c2n[nH]c3c(O)cccc23)c(O)c1`, the Activity was under 50%.
